From patent publication US20060142572A1, “Inhibitors of ERK protein kinase and uses thereof” (priority 2004, published 2006)

Target: activated ERK2 (Homo sapiens, UniProt P28482)
Assay: ERK2 inhibition assay (spectrophotometric coupled-enzyme assay)
Assay type: biochemical
Conditions: activated ERK2 10 nM, 65 μM ATP, 200 μM erktide peptide, 30° C., pH 7.5
Protocol: Compounds were assayed for the inhibition of ERK2 by a spectrophotometric coupled-enzyme assay (Fox et al., Protein Sci. 7:2249, 1998). In this assay, a fixed concentration of activated ERK2 (10 nM) was incubated with various concentrations of a compound of the present invention in DMSO (2.5%) for 10 min. at 30° C. in 0.1 M HEPES buffer (pH 7.5), containing 10 mM MgCl2, 2.5 mM phosphoenolpyruvate, 200 μM NADH, 150 μg/ml pyruvate kinase, 50 μg/ml lactate dehydrogenase, and 200 μM erktide peptide. The reaction was initiated by the addition of 65 μM ATP. The rate of decrease of absorbance at 340 nm was monitored.

activated ERK2, sequence (P28482 whole entry): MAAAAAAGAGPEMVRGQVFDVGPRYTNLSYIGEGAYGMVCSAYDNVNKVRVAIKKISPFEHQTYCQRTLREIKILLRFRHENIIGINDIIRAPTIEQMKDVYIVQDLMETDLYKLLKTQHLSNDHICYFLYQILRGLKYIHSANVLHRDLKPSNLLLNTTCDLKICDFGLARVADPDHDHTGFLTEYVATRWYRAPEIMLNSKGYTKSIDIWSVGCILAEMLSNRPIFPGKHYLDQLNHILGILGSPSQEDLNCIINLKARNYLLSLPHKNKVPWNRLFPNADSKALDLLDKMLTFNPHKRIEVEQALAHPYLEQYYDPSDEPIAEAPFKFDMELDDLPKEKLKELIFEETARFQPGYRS

SMILES | Ki [nM]
CC(C)Nc1ncc(Cl)c(NCC(=O)N[C@H](CO)c2cccc(Cl)c2)n1 [Compound I-1] | > 700
C[C@@H](CO)Nc1ncc(Cl)c(NCC(=O)N[C@H](CO)c2cccc(Cl)c2)n1 [Compound I-2, 2-[5-chloro-2-(2-hydroxy-1-methylethylamino)-pyrimidin-4-ylamino]-N-[1-(3-chlorophenyl)-2-hydroxyethyl]acetamide] | ≤ 700
CC(C)Nc1ncc(Cl)c(NCCC(=O)N[C@H](CO)c2cccc(Cl)c2)n1 [Compound I-3] | > 700
C[C@@H](CO)Nc1ncc(Cl)c(NCCC(=O)N[C@H](CO)c2cccc(Cl)c2)n1 [Compound I-4] | > 700
C[C@@H](CO)Nc1ncc(Cl)c(NC2(C(=O)N[C@H](CO)c3cccc(Cl)c3)CC2)n1 [Compound I-5, 1-(5-chloro-2-(2-hydroxy-1-methylethylamino)-pyrimidin-4-ylamino)-cyclopropanecarboxylic acid [1-(3-chlorophenyl)-2-hydroxyethyl]-amide] | > 700
CC[C@@H](CO)Nc1ncc(Cl)c(NC2(C(=O)N[C@H](CO)c3cccc(Cl)c3)CC2)n1 [Compound I-6] | > 700
C[C@@H](CO)Nc1ncc(Cl)c(N(C)CC(=O)N[C@H](CO)c2cccc(Cl)c2)n1 [Compound I-7, 2-{[5-chloro-2-(2-hydroxy-1-methylethylamino)pyrimidin-4-yl]-methylamino}-N-[1-(3-chlorophenyl)-2-hydroxyethyl]acetamide] | > 700
C[C@@H](CO)Nc1nccc(N(C)CC(=O)N[C@H](CO)c2cccc(Cl)c2)n1 [Compound I-8] | > 700
